Earlier results, collected in patent publication US11224646B2, “Intranasal delivery of a cyclic-di-nucleotide adjuvanted vaccine for tuberculosis” (priority 2018, dated 2022).

Legend:
[1] = test system: phosphodiesterases
[2] = biological target: T1, murine STING (Mus musculus, UniProt Q3TBT3)
T1 sequence (Q3TBT3 1-378): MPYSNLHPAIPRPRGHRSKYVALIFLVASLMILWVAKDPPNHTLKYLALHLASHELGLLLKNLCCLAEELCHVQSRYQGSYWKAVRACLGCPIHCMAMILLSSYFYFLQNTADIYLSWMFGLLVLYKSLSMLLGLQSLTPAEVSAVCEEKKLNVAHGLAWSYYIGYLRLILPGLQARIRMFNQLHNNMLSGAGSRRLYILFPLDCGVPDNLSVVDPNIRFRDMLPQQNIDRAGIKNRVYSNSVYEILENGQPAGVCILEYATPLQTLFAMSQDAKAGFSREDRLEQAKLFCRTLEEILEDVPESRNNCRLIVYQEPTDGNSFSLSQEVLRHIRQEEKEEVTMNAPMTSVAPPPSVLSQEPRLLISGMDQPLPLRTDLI

[3] = test system: five common human STING alleles

Nc1nc2c(ncn2[C@@H]2O[C@@H]3COP(=O)(S)O[C@H]4[C@@H](O)[C@H](n5cnc6c(N)ncnc65)O[C@@H]4CO[P@@](=O)(S)O[C@@H]2[C@@H]3O)c(=O)[nH]1 (stereo partly drawn) [ML-RR-cGAMP, dithio-[RP, RP]-cyclic-[G(2′,5′)pA(3′,5′)p]]
hydrolysis by phosphodiesterases [1]: resistant to hydrolysis by phosphodiesterases

Nc1nc2c(ncn2[C@@H]2O[C@@H]3CO[P@@](=O)(S)O[C@H]4[C@@H](O)[C@H](n5cnc6c(=O)[nH]c(N)nc65)O[C@@H]4CO[P@@](=O)(S)O[C@H]3[C@H]2O)c(=O)[nH]1 [RR-CDG, dithio-[RP, RP]-cyclic-[G(3′,5′)pG(3′,5′)p]]
activation of murine STING [2]: efficiently activates murine STING | engagement / activation of the five common human STING alleles [3]: does not engage all five common STING alleles
